Here are results for 16 compounds from patent publication US11840535B2, “Alkynyl(hetero)aromatic compound for inhibiting protein kinase activity” (Shenzhen TargetRx, Inc., priority 2018, dated 2023).

One experiment has as its target ABL (Homo sapiens (Human), UniProt P00519). Nature of the experiment: Biochemical kinase analysis, ABL. The procedure: (§1) Reagents and materials: ABL (ThermoFisher, Cat. No PV3585), ABL^T315I (Thermo Fisher, Cat. No. PR7429B), ATP (Sigma, Cat. No. A7699-1G), DMSO (Sigma, Cat. No. D2650), 96-well plate (Corning, Cat. No. 3365), 384-well plate (Greiner, Cat. No. 784076), buffer solution (Thermo Fisher, Cat. No. PR4876B).
(§2) Compound formulation: The test compounds were dissolved in DMSO to prepare a 20 mM stock solution. Before use, the compounds were diluted in DMSO to 0.1 mM, and diluted into 11 concentrations with a 3-fold gradient. When addition, diluentions of 4-fold final concentration were then made with buffer solution.
(§3) Kinase assay method: After preparing the buffer, the enzyme was mixed with pre-formulated and diluted compounds of different concentrations in duplicate for each concentration, and placed at room temperature for 30 minutes. The corresponding substrate and ATP were added thereto, and reacted at room temperature for 60 minutes (both a negative and a positive control were set). After the reaction, antibody was added for detection, Envision detection was carried out after 60 minutes incubation at room temperature, and data was collected. Data analysis and fitting were made according to XLfit5 software, wherein, A represents IC50≤5 nM, B represents IC50 is 5-50 nM, C represents IC50 is 50-100 nM, D represents IC50>100 nM.

The target in the next experiment is ABL^T315I (Homo sapiens (Human), UniProt P00519, T315I). Nature of the experiment: Biochemical kinase analysis, ABL T315I. How it is done: as §1, §2, §3
The subject of the next experiment is Ba/F3 parental cells. Nature of the experiment: Cell proliferation analysis, Ba/F3 parental. The format is cell-based. The note with it: Mus musculus, BaF3, 72 h; 8 ng/ml IL-3, 3 days, CellTiter-Glo. The procedure:
(§4) The inhibitory effect of the example compounds on Ba/F3, Ba/F3 Bcr-Abl T315I cell activity was determined.
(§5) Materials and reagents: RPMI-1640 medium (GIBCO, Catalog No. A10491-01), fetal bovine serum (GIBCO, Catalog No. 10099141), antibiotics (Penicillin-Streptomycin), IL-3 (PeproTech), promycin; cell lines: Ba/F3, Ba/F3 Bcr-Abl T315I (Purchased from American type culture collection, ATCC), live cell detection kit […] (Promega, Catalog No. G7572), 96-well black wall transparent flat bottom cell culture plate (Corning, Catalog No. 3340).
(§6) Test method: 1. Preparation of cell plate: Ba/F3, Ba/F3 Bcr-Abl T315I cells were respectively seeded in 96-well plates, and 8 ng/ml IL-3 was added to the Ba/F3 cells, and the cell plates were placed in a carbon dioxide incubator and cultured overnight. 2. The test compounds were dissolved in DMSO, 9 compound concentrations were made with a 3.16-fold gradient dilution in triplicate. 3. Treatment of the cells with compounds: The compounds were transferred to the cell plate with a starting concentration of 10 μM. The cell plate was placed in a carbon dioxide incubator for 3 days. 4. Detection: CellTiter-Glo agent was added to the cell plate, and incubated at room temperature for 30 minutes to stabilize the luminous signal. PerkinElmer Envision multi-label analyzer was used for reading, wherein A represents […], B represents IC50 is 10-20 nM, C represents IC50 is 20-50 nM, D represents IC50 is 50-1000 nM, E represents IC50>1000 nM.

For experiment [1], the system named is Ba/F3 Bcr-Abl T315I cells. As to the kind of experiment: Cell proliferation analysis, Ba/F3 Bcr-Abl T315I. It is filed as cell-based. The conditions noted are these: for IC50: Mus musculus, BaF3, 72 h, 3 days, CellTiter-Glo; for Selectivity [Ba/F3 (parental/Bcr-Abl ^T315I)]: ratio of Ba/F3 parental to Ba/F3 Bcr-Abl T315I. The procedure: as §4, §5, §6
A general note: ATP-based viability assays read luminescence as a measure of living cells.

As usually defined, the IC50 is the concentration that inhibits the measured activity by half.

Consider `CCc1nc(C#Cc2cc(C(=O)Nc3ccc(CN4CCN(C)CC4)c(C(F)(F)F)c3)ccc2C)c2c(N)nccn12` [Example 1, 3-((8-amino-3-ethylimidazo[1,5-a]pyrazin-1-yl)ethynyl)-4-methyl-N-(4-((4-methylpiperazin-1-yl)methyl)-3-(trifluoromethyl)phenyl)benzamide], for which the IC50 against ABL is at most 5 nM; at ABL^T315I, at most 5 nM; in the experiment on Ba/F3 parental cells, above 1000 nM; in experiment [1] it was 20 to 50 nM. Further, in experiment [1], the “Selectivity [Ba/F3 (parental/Bcr-Abl ^T315I)]” value is recorded as 50~100.
For the compound `CCc1nc(C#Cc2cc(C(=O)Nc3cccc(C(F)(F)F)c3)ccc2C)c2c(N)nccn12` [Example 2, 3-((8-amino-3-ethylimidazo[1,5-a]pyrazin-1-yl)ethynyl)-4-methyl-N-(3-(trifluoromethyl)phenyl)benzamide], the IC50 was 5 to 50 nM at ABL and 50 to 100 nM at ABL^T315I.
The matching figures for `Cc1ccc(C(=O)Nc2ccc(CN3CCN(C)CC3)c(C(F)(F)F)c2)cc1C#Cc1nc(C)n2ccnc(N)c12` [Example 3, 3-((8-amino-3-methylimidazo[1,5-a]pyrazin-1-yl)ethynyl)-4-methyl-N-(4-((4-methylpiperazin-1-yl)methyl)-3-(trifluoromethyl)phenyl)benzamide]: at most 5 nM and at most 5 nM.
In the case of `Cc1ccc(C(=O)Nc2ccc(CN3CCN(C)CC3)c(C(F)(F)F)c2)cc1C#Cc1nc(C(C)C)n2ccnc(N)c12` [Example 4, 3-((8-amino-3-isopropylimidazo[1,5-a]pyrazin-1-yl)ethynyl)-4-methyl-N-(4-((4-methylpiperazin-1-yl)methyl)-3-(trifluoromethyl)phenyl)benzamide], the IC50 is at most 5 nM at ABL, at most 5 nM on ABL^T315I, above 1000 nM in the experiment with Ba/F3 parental cells and 50 to 1000 nM in experiment [1]. Besides, the “Selectivity [Ba/F3 (parental/Bcr-Abl ^T315I)]” value in experiment [1] is on record as 0~50.
With `CCn1cc(C#Cc2cc(C(=O)Nc3cccc(C(F)(F)F)n3)ccc2C)c2c(N)ncnc21` [Example 7, 3-((4-amino-7-ethyl-7H-pyrrolo[2,3-d]pyrimidin-5-yl)ethynyl)-4-methyl-N-(6-(trifluoromethyl)pyridin-2-yl)benzamide], the figures for the concentration for half-maximal inhibition (IC50) against ABL and against ABL^T315I were at most 5 nM and 5 to 50 nM, respectively.
The matching figures for `CCn1cc(C#Cc2cccc(C(=O)Nc3cccc(C(F)(F)F)c3)c2)c2c(N)ncnc21` [Example 8, 3-((4-amino-7-ethyl-7H-pyrrolo[2,3-d]pyrimidin-5-yl)ethynyl)-N-(3-(trifluoromethyl)phenyl)benzamide]: at most 5 nM and at most 5 nM.
As to `CCn1cc(C#Cc2cc(C(=O)Nc3ccc(CN(C)C)c(C(F)(F)F)c3)ccc2C)c2c(N)ncnc21` [Example 9, 3-((4-amino-7-ethyl-7H-pyrrolo[2,3-d]pyrimidin-5-yl)ethynyl)-N-(4-((dimethylamino)methyl)-3-(trifluoromethyl)phenyl)-4-methylbenzamide], the IC50 against ABL is at most 5 nM; at ABL^T315I it was at most 5 nM; in the experiment with Ba/F3 parental cells it was above 1000 nM; in experiment [1], 10 to 20 nM. Besides, the “Selectivity [Ba/F3 (parental/Bcr-Abl ^T315I)]” value in experiment [1] is given as 150~500.
`CCn1cc(C#Cc2cc(C(=O)Nc3cc(-n4cnc(C)c4)cc(C(F)(F)F)c3)ccc2C)c2c(N)ncnc21` [Example 10, 3-((4-amino-7-ethyl-7H-pyrrolo[2,3-d]pyrimidin-5-yl)ethynyl)-4-methyl-N-(3-(4-methyl-1H-imidazol-1-yl)-5-(trifluoromethyl)phenyl)benzamide]: the IC50 at ABL is 5 to 50 nM; at ABL^T315I it was 5 to 50 nM; in the experiment on Ba/F3 parental cells, above 1000 nM; in experiment [1], 10 to 20 nM. Moreover, the “Selectivity [Ba/F3 (parental/Bcr-Abl ^T315I)]” value in experiment [1] is reported as 150~500.
As to `Cc1cn(-c2cc(NC(=O)c3ccc(C)c(C#Cc4cn(C)c5ncnc(N)c45)c3)cc(C(F)(F)F)c2)cn1` [Example 11, 3-((4-amino-7-methyl-7H-pyrrolo[2,3-d]pyrimidin-5-yl)ethynyl)-4-methyl-N-(3-(4-methyl-1H-imidazol-1-yl)-5-(trifluoromethyl)phenyl)benzamide], the IC50 against ABL was at most 5 nM; against ABL^T315I it was 5 to 50 nM; in the experiment with Ba/F3 parental cells, above 1000 nM; in experiment [1] it was 10 to 20 nM. In addition, the “Selectivity [Ba/F3 (parental/Bcr-Abl ^T315I)]” value in experiment [1] is reported as above 500.
The matching figures for `Cc1ccc(C(=O)Nc2cccc(C(F)(F)F)c2)cc1C#Cc1cn(C(C)C)c2ncnc(N)c12` [Example 13, 3-((4-amino-7-isopropyl-7H-pyrrolo[2,3-d]pyrimidin-5-yl)ethynyl)-4-methyl-N-(3-(trifluoromethyl)phenyl)benzamide]: 5 to 50 nM, 5 to 50 nM, above 1000 nM, 20 to 50 nM and 100~150.
In the case of `Cc1ccc(C(=O)Nc2cccc(C(F)(F)F)c2)cc1C#Cc1cn(C)c2ncnc(N)c12` [Example 14, 3-((4-amino-7-methyl-7H-pyrrolo[2,3-d]pyrimidin-5-yl)ethynyl)-4-methyl-N-(3-(trifluoromethyl)phenyl)benzamide], the IC50 was at most 5 nM against ABL, at most 5 nM at ABL^T315I, above 1000 nM in the experiment with Ba/F3 parental cells and 20 to 50 nM in experiment [1]. Further, the “Selectivity [Ba/F3 (parental/Bcr-Abl ^T315I)]” value in experiment [1] was 50~100.
For `Cc1ccc(C(=O)Nc2ccc(CN3CCN(C)CC3)c(C(F)(F)F)c2)cc1C#Cc1cn(C)c2ncnc(N)c12` [Example 16, 3-((4-amino-7-methyl-7H-pyrrolo[2,3-d]pyrimidin-5-yl)ethynyl)-4-methyl-N-(4-((4-methylpiperazin-1-yl)methyl)-3-(trifluoromethyl)phenyl)benzamide], the half-inhibitory concentration (IC50) at ABL was at most 5 nM; on ABL^T315I, at most 5 nM; with Ba/F3 parental cells, above 1000 nM; in experiment [1], at most 10 nM. The “Selectivity [Ba/F3 (parental/Bcr-Abl ^T315I)]” value in experiment [1] is given as 150~500.
For `Cc1ccc(NC(=O)c2ccc(CN3CCN(C)CC3)c(C(F)(F)F)c2)cc1C#Cc1cn(C)c2ncnc(N)c12` [Example 19, N-(3-((4-amino-7-methyl-7H-pyrrolo[2,3-d]pyrimidin-5-yl)ethynyl)-4-methylphenyl)-4-((4-methylpiperazin-1-yl)methyl)-3-(trifluoromethyl)benzamide], the IC50 against ABL is at most 5 nM; against ABL^T315I it was at most 5 nM; in the experiment with Ba/F3 parental cells, above 1000 nM; in experiment [1], at most 10 nM. Moreover, the “Selectivity [Ba/F3 (parental/Bcr-Abl ^T315I)]” value in experiment [1] is listed as 150~500.
As to `Cc1ccc(NC(=O)c2ccc(C)c(C(F)(F)F)c2)cc1C#Cc1cn(C2CCCC2)c2ncnc(N)c12` [Example 20, N-(3-((4-amino-7-cyclopentyl-7H-pyrrolo[2,3-d]pyrimidin-5-yl)ethynyl)-4-methylphenyl)-4-methyl-3-(trifluoromethyl)benzamide], the concentration for half-maximal inhibition (IC50) at ABL lay within 5 to 50 nM; at ABL^T315I, 50 to 100 nM.
As for `CCn1cc(C#Cc2cc(NC(=O)c3cc(-n4cnc(C)c4)cc(C(F)(F)F)c3)ccc2C)c2c(N)ncnc21` [Example 21, N-(3-((4-amino-7-ethyl-7H-pyrrolo[2,3-d]pyrimidin-5-yl)ethynyl)-4-methylphenyl)-3-(4-methyl-1H-imidazol-1-yl)-5-(trifluoromethyl)benzamide], the half-maximal inhibitory concentration (IC50) against ABL was at most 5 nM; against ABL^T315I it was 5 to 50 nM; in the experiment with Ba/F3 parental cells, 50 to 1000 nM; in experiment [1] it was at most 10 nM. Moreover, in experiment [1], the “Selectivity [Ba/F3 (parental/Bcr-Abl ^T315I)]” value is 50~100.
Consider `Cc1ccc(C(=O)Nc2cccc(C(F)(F)F)c2)cc1C#Cc1cn([C@H]2CC[C@H](O)CC2)c2ncnc(N)c12` [Example 23, 3-((4-amino-7-((1r,4r)-4-hydroxycyclohexyl)-7H-pyrrolo[2,3-d]pyrimidin-5-yl)ethynyl)-4-methyl-N-(3-(trifluoromethyl)phenyl)benzamide], for which the figures for the half-maximal inhibitory concentration (IC50) against ABL and against ABL^T315I were at most 5 nM and 5 to 50 nM, respectively.
